According to patent publication US8658646B2, “Pyrrolopyrazine kinase inhibitors” (Hoffmann-LaRoche Inc., priority 2011, dated 2014):
“And” between values parts separate entries of the source, which are not always exact repeats. Equal values may be shown once.

Key:
[1] = target: T1, recombinant human SYK360-635 (Homo sapiens, UniProt P43405); experiment: Determination of IC50 of Spleen Tyrosine Kinase (SYK) inhibition, 33P ATP filtration assay; type: biochemical; settings: SYK aa 360-635 0.5 nM; ATP 20 μM, peptide 5 μM, 0.1% BSA; read-out: SYK_ENZYME_FILTRATION/v1, BSA
T1 construct: made in house
Protocol: All concentrations were final in the reaction mixture and all incubations were carried at room temperature. […] SYK Assay Information Determination of IC50 of Spleen Tyrosine Kinase (SYK) Inhibition:
SYK kinase assay is a standard kinase assay adapted to a 96 well plate format. This assay is performed in 96-well format for IC50 determination with 8 samples which represented 10 half log dilutions and a 40 μL reaction volume. The assay measures the incorporation of radiolabeled ^33P γATP into an N-terminally biotinylated peptide substrate, derived from naturally occurring phosphoacceptor consensus sequence (Biotin-11aa DY*E). […] Experimental Method:
DMSO and the mixture was incubated for 10 min at RT.
The kinase reaction was initiated by the addition of 10 μL 4× substrate cocktail containing the DYE peptide substrate [0 or 5 μM], ATP [20 μM] and ^33PγATP [2 μCi/r×n]. After incubation at 30° C. for 15 min, the reaction was terminated by the transfer of 25 μL pf the reaction sample to a 96 well 0.65 μm Millipore MADVNOB membrane/plate containing 200 μL 5 mM EDTA and 20% Streptavidine coated beads in PBS.
The unbound radionucleotides were washed under vacuum with 3×250 μL 2M NaCl; 2×250 μL 2M NaCl+1% phosphoric acid; 1×250 μL H2O. After the last wash membrane/plates were transferred to an adaptor plate, heat dried for 15 min at 60° C., and 50 μL scintillation cocktail was added to each well and 4 h later the amount of radioactivity was counted in a top counter.

[2] = target: T2, JAK3: Recombinant human kinase domain (Homo sapiens, UniProt P52333); experiment: Determination of IC50 of Janus Kinase (JAK) inhibition, radioactive end-point 33P-ATP assay, JAK3; type: biochemical; settings: ATP 1.5 uM, peptide 50 uM, 20 minutes, read-out: JAK3-INHIB-DR/v1~NO ADDITIVE~Enzyme_Conc = 100
T2 construct: JAK3: Recombinant human kinase domain from Millipore (Cat #14-629) or prepared; purchased Millipore 14-629
T2 sequence (P52333 822-1111 limits assumed): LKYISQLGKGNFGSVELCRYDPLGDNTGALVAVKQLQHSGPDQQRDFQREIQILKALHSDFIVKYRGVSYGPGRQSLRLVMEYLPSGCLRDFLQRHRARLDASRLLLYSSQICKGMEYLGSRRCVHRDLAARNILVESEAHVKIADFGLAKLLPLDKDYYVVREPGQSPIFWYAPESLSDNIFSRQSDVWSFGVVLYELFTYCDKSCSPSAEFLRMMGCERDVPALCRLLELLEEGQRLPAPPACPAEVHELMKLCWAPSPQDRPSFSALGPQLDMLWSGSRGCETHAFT

SMILES	IC50 [1]	IC50 [2] [nM]
Cn1nc(-c2cnc3[nH]cc(C(=O)NC4CCOCC4)c3n2)c2ccc(Cl)cc21 [Example I-112, 2-(6-Chloro-1-methyl-1H-indazol-3-yl)-5H-pyrrolo[2,3-b]pyrazine-7-carboxylic acid (tetrahydro-pyran-4-yl)-amide]	33.3 nM	14.6
COC[C@H](CCS(C)(=O)=O)NC(=O)c1c[nH]c2ncc(-c3nn(C)c4cc(F)ccc34)nc12 [Example I-192, 2-(6-Fluoro-1-methyl-1H-indazol-3-yl)-5H-pyrrolo[2,3-b]pyrazine-7-carboxylic acid ((S)-3-methanesulfonyl-1-methoxymethyl-propyl)-amide]	135 nM	1.88
COc1ccc2c(-c3cnc4[nH]cc(C(=O)NC(C)(C)C)c4n3)nn(C)c2c1 [Example I-366, 2-(6-Methoxy-1-methyl-1H-indazol-3-yl)-5H-pyrrolo[2,3-b]pyrazine-7-carboxylic acid tert-butylamide]	< 1 nM (2×) and 1.6 nM	63.7
Cn1nc(-c2cnc3[nH]cc(C(=O)NC4(c5ccc(Br)cc5)CC4)c3n2)c2ccc(F)cc21 [Example I-208, 2-(6-Fluoro-1-methyl-1H-indazol-3-yl)-5H-pyrrolo[2,3-b]pyrazine-7-carboxylic acid [1-(4-bromo-phenyl)-cyclopropyl]-amide]	4020 nM and > 10000 nM	77.7
C[C@@H](NC(=O)c1c[nH]c2ncc(-c3nccc4ccccc34)nc12)C(=O)N1CC(C#N)C1 [Example I-77, 2-Isoquinolin-1-yl-5H-pyrrolo[2,3-b]pyrazine-7-carboxylic acid [(R)-2-(3-cyano-azetidin-1-yl)-1-methyl-2-oxo-ethyl]-amide]	> 10000 nM	53.8
COC[C@H](C)NC(=O)c1c[nH]c2ncc(-c3nn(C)c4cc(Cl)ccc34)nc12 [Example I-165, 2-(6-Chloro-1-methyl-1H-indazol-3-yl)-5H-pyrrolo[2,3-b]pyrazine-7-carboxylic acid ((S)-2-methoxy-1-methyl-ethyl)-amide]	17 nM	1.14
CC(C)NC(=O)c1c[nH]c2ncc(-c3nn(C)c4ccc(Oc5cccc(Cl)c5)cc34)nc12 [Example I-280, 2-[5-(3-Chloro-phenoxy)-1-methyl-1H-indazol-3-yl]-5H-pyrrolo[2,3-b]pyrazine-7-carboxylic acid isopropylamide]	377 nM	240
CC(NC(=O)c1c[nH]c2ncc(-c3nn(C)c4cc(Cl)ccc34)nc12)C(F)(F)F (centres unmarked) [Example I-160, 2-(6-Chloro-1-methyl-1H-indazol-3-yl)-5H-pyrrolo[2,3-b]pyrazine-7-carboxylic acid (2,2,2-trifluoro-1-methyl-ethyl)-amide]	37.3 nM	19.4
C[C@H](NC(=O)c1c[nH]c2ncc(-c3nn(C)c4cc(F)ccc34)nc12)C(C)(C)C [Example I-45, 2-(6-Fluoro-1-methyl-1H-indazol-3-yl)-5H-pyrrolo[2,3-b]pyrazine-7-carboxylic acid ((S)-1,2,2-trimethyl-propyl)-amide]	11 nM	0.535
CN(C)CCn1nc(-c2cnc3[nH]cc(C(=O)NC(C)(C)C)c3n2)c2ccc(F)cc21 [Example I-313, 2-[1-(2-Dimethylamino-ethyl)-6-fluoro-1H-indazol-3-yl]-5H-pyrrolo[2,3-b]pyrazine-7-carboxylic acid tert-butylamide]	46 nM	157
Cn1nc(-c2cnc3[nH]cc(C(=O)N[C@@H]4CCC[C@@H](O)C4)c3n2)c2ccc(Cl)cc21 (relative stereo) [Example I-148, 2-(6-Chloro-1-methyl-1H-indazol-3-yl)-5H-pyrrolo[2,3-b]pyrazine-7-carboxylic acid (trans-3-hydroxy-cyclohexyl)-amide]	19.3 nM	55.5
Cn1nc(-c2cnc3[nH]cc(C(=O)N[C@@H]4CCC[C@@H](C#N)C4)c3n2)c2ccc(Cl)cc21 (relative stereo) [Example I-156, 2-(6-Chloro-1-methyl-1H-indazol-3-yl)-5H-pyrrolo[2,3-b]pyrazine-7-carboxylic acid (trans-3-cyano-cyclohexyl)-amide]	85.1 nM	5.47
Cn1nc(-c2cnc3[nH]cc(C(=O)N[C@H]4CC[C@H](O)C4)c3n2)c2ccc(F)cc21 (relative stereo) [Example I-47, 2-(6-Fluoro-1-methyl-1H-indazol-3-yl)-5H-pyrrolo[2,3-b]pyrazine-7-carboxylic acid (trans-3-hydroxy-cyclopentyl)-amide]	21.9 nM	5.31
C[C@H](CN1CC(F)C1)NC(=O)c1c[nH]c2ncc(-c3nn(C)c4cc(Cl)ccc34)nc12 [Example I-123, 2-(6-Chloro-1-methyl-1H-indazol-3-yl)-5H-pyrrolo[2,3-b]pyrazine-7-carboxylic acid [(R)-2-(3-fluoro-azetidin-1-yl)-1-methyl-ethyl]-amide]	144 nM	68.6
CC(NC(=O)c1c[nH]c2ncc(-c3nn(CCN4CCOCC4)c4cc(F)ccc34)nc12)c1ccncc1 (centres unmarked) [Example I-248, 2-[6-Fluoro-1-(2-morpholin-4-yl-ethyl)-1H-indazol-3-yl]-5H-pyrrolo[2,3-b]pyrazine-7-carboxylic acid (1-pyridin-4-yl-ethyl)-amide]	514 nM	53.5
CC(CCCC(C)(C)O)NC(=O)c1c[nH]c2ncc(-c3nn(C)c4cc(Cl)ccc34)nc12 (centres unmarked) [Example I-163, 2-(6-Chloro-1-methyl-1H-indazol-3-yl)-5H-pyrrolo[2,3-b]pyrazine-7-carboxylic acid (5-hydroxy-1,5-dimethyl-hexyl)-amide]	356 nM	80.7
CC(C)NC(=O)c1c[nH]c2ncc(-c3nn(C4COC4)c4cc(F)ccc34)nc12 [Example I-102, 2-(6-Fluoro-1-oxetan-3-yl-1H-indazol-3-yl)-5H-pyrrolo[2,3-b]pyrazine-7-carboxylic acid isopropylamide]	18.7 nM	1.63
COC[C@H](C)NC(=O)c1c[nH]c2ncc(-c3ncn4cc(F)cc(F)c34)nc12 [Example I-40, 2-(6,8-Difluoro-imidazo[1,5-a]pyridin-1-yl)-5H-pyrrolo[2,3-b]pyradine-7-carboxylic acid ((S)-2-methoxy-1-methyl-ethyl)-amide]	994 nM	10.2
Cn1nc(-c2cnc3[nH]cc(C(=O)N[C@H]4CCCOC4)c3n2)c2ccc(Cl)cc21 [Example I-138, 2-(6-Chloro-1-methyl-1H-indazol-3-yl)-5H-pyrrolo[2,3-b]pyrazine-7-carboxylic acid (S)-tetrahydro-pyran-3-ylamide]	21.9 nM	31.4
Cn1nc(-c2cnc3[nH]cc(C(=O)NC4CCOC4)c3n2)c2ccc(Cl)cc21 (centres unmarked) [Example I-107, 2-(6-Chloro-1-methyl-1H-indazol-3-yl)-5H-pyrrolo[2,3-b]pyrazine-7-carboxylic acid (tetrahydro-furan-3-yl)-amide]	20.8 nM	11.5
Cc1cc(C(C)NC(=O)c2c[nH]c3ncc(-c4nn(C)c5cc(F)ccc45)nc23)no1 (centres unmarked) [Example I-54, 2-(6-Fluoro-1-methyl-1H-indazol-3-yl)-5H-pyrrolo[2,3-b]pyrazine-7-carboxylic acid [1-(5-methyl-isoxazol-3-yl)-ethyl]-amide]	77.7 nM	14
Cn1nc(-c2cnc3[nH]cc(C(=O)N[C@@H]4CCC[C@H](O)C4)c3n2)c2ccc(Cl)cc21 (relative stereo) [Example I-149, 2-(6-Chloro-1-methyl-1H-indazol-3-yl)-5H-pyrrolo[2,3-b]pyrazine-7-carboxylic acid (cis-3-hydroxy-cyclohexyl)-amide]	52 nM	10.3
C[C@@H](COC(F)F)NC(=O)c1c[nH]c2ncc(-c3nn(C)c4cc(F)ccc34)nc12 [Example I-193, 2-(6-Fluoro-1-methyl-1H-indazol-3-yl)-5H-pyrrolo[2,3-b]pyrazine-7-carboxylic acid ((S)-2-difluoromethoxy-1-methyl-ethyl)-amide]	140 nM	0.795
CC(C)(C)NC(=O)c1c[nH]c2ncc(-c3cccc4[nH]ncc34)nc12 [Example I-399, 2-(1H-Indazol-4-yl)-5H-pyrrolo[2,3-b]pyrazine-7-carboxylic acid tert-butylamide]	4.73 nM	18.1
Cn1nc(-c2cnc3[nH]cc(C(=O)NC4CCCOC4)c3n2)c2ccc(Cl)cc21 (centres unmarked) [Example I-111, 2-(6-Chloro-1-methyl-1H-indazol-3-yl)-5H-pyrrolo[2,3-b]pyrazine-7-carboxylic acid (tetrahydro-pyran-3-yl)-amide]	21.7 nM	3.97
CC(C)NC(=O)c1c[nH]c2ncc(-c3nn(Cc4nccn4C)c4cc(Cl)ccc34)nc12 [Example I-311, 2-[6-Chloro-1-(1-methyl-1H-imidazol-2-ylmethyl)-1H-indazol-3-yl]-5H-pyrrolo[2,3-b]pyrazine-7-carboxylic acid isopropylamide]	10.9 nM	4.46
C[C@H](O)[C@H](C)NC(=O)c1c[nH]c2ncc(-c3nn(C)c4cc(Cl)ccc34)nc12 (relative stereo) [Example I-201, 2-(6-Chloro-1-methyl-1H-indazol-3-yl)-5H-pyrrolo[2,3-b]pyrazine-7-carboxylic acid (trans-2-hydroxy-1-methyl-propyl)-amide]	7.57 nM	10.5
C[C@@H](NC(=O)c1c[nH]c2ncc(-c3nn(C)c4cc(F)ccc34)nc12)C(C)(C)F [Example I-44, 2-(6-Fluoro-1-methyl-1H-indazol-3-yl)-5H-pyrrolo[2,3-b]pyrazine-7-carboxylic acid ((R)-2-fluoro-1,2-dimethyl-propyl)-amide]	16 nM	13.9
